We go through eleven molecules from patent publication US7166622B2, “Substituted phenylsulfonamide inhibitors of beta amyloid production” (Wyeth, priority 2002, dated 2007).

One data set deals with CHO-K1 cells. In words: Toxicity in RRA (loss of luciferase signal). The following applies: toxicity = loss of signal (<0.75 fold increase).
A further data set concerns beta amyloid production. The experiment in a line: Repressor Release Assay (RRA). In kind it is cell-based. The conditions noted are these: for fold induction at 3 µg/mL: Conc 3 μg/ml; for APPI % of Example #98: relative to Example 98. An outline of the steps:
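Read-out is luciferase luminescence (RLU) after 36-48 h duplicate compound exposure of transfected CHO-K1 cells. These cells carry transiently introduced APP-lacI and pRSVO-luc DNA. Diluent control was 25 mM Hepes/1% DMSO; toxicity recorded as binary score (1 non-toxic, 0 toxic).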

The mark [1] stands for this setting: luciferase activity over diluent control, read-out: APPI Fold Increase.
The mark [2] stands for this setting: Conc 10 μg/ml, luciferase activity over diluent control, read-out: APPI Fold Increase.
The mark [3] stands for this setting: Conc 20 μg/ml, luciferase activity over diluent control, read-out: APPI Fold Increase.

Method for CHO-K1 cells: The beta amyloid inhibitory activity of the compounds of the present invention was determined using the Repressor Release Assay (RRA).
“Fold Increase” refers to the amount of luciferase activity (measured in relative light units) over diluent control. “SEM” refers to the standard error of the mean for fold increase.

Consider `CC[C@H](C)[C@@H](CO)NS(=O)(=O)c1cccc(Cl)c1Cl` [Example 23, 2,3-dichloro-N-[(1S,2S)-1-(hydroxymethyl)-2-methylbutyl]benzenesulfonamide], for which the “(%)APPI Toxicity” value in the data set with CHO-K1 cells (Conc 3 μg/ml), with CHO-K1 cells (Conc 10 μg/ml) and with CHO-K1 cells (Conc 20 μg/ml) was 1 (1=non-toxic) in each case. Further, the fold induction at 3 µg/mL with beta amyloid production (setting [1]) was determined as 1.67. Further, in the data set on beta amyloid production (setting [2]), the fold induction at 10 µg/mL worked out at 3.6. For the same molecule, in the data set on beta amyloid production (setting [3]), the fold induction at 20 µg/mL came out at 8.3.

As for `CC[C@H](C)[C@H](NS(=O)(=O)c1ccc(Br)cc1)C(O)c1ccc(Cl)cc1` (stereo partly drawn) [Example 155, 4-bromo-N-{(1S,2S)-1-[(4-chlorophenyl)(hydroxy)methyl]-2-methylbutyl}benzenesulfonamide], the “(%)APPI Toxicity” value in the data set with CHO-K1 cells (Conc 10 μg/ml) is on record as 1 (1=non-toxic). In addition, in the data set with beta amyloid production (setting [2]), the fold induction at 10 µg/mL worked out at 4.37.

In the case of `CC[C@H](C)[C@H](NS(=O)(=O)c1ccc(Br)cc1)C(O)(c1ccc(Cl)cc1)c1ccc(Cl)cc1` [Example 218, N-{(1S,2S)-1-[bis(4-chlorophenyl) (hydroxy)methyl]-2-methylbutyl}-4-bromobenzenesulfonamide], the “(%)APPI Toxicity” value in the data set with CHO-K1 cells (Conc 10 μg/ml) is on record as 1 (1=non-toxic). Moreover, the fold induction at 10 µg/mL with beta amyloid production (setting [2]) was 1.55.

For the molecule `C=CCC(O)[C@@H](NS(=O)(=O)c1cccc(Cl)c1)[C@@H](C)CC` (stereo partly drawn) [Example 194, 3-chloro-N-{(1S)-2-hydroxy-1-[(1S)-1-methylpropyl]-4-pentenyl}benzenesulfonamide], the “(%)APPI Toxicity” value in the data set with CHO-K1 cells (Conc 10 μg/ml) is 1 (1=non-toxic). In addition, the fold induction at 10 µg/mL in the data set on beta amyloid production (setting [2]) turned out to be 3.42.

Take `CCCCCC[C@@H](CC)[C@@H](CO)NS(=O)(=O)c1ccc(Cl)cc1` [Example 89, 4-chloro-N-[(1S,2R)-2-ethyl-1-(hydroxymethyl)octyl] benzenesulfonamide]: the “(%)APPI Toxicity” value in the data set with CHO-K1 cells (Conc 20 μg/ml, 1=non-toxic, 0=toxic) is 1 (1=non-toxic). Besides, the “APPI Fold Increase” value in the data set with beta amyloid production (Conc 20 μg/ml, luciferase activity (RLU) over diluent control) worked out at 22.4. Also, the “APPI % of Example #98” value with beta amyloid production (Conc 20 μg/ml) stood at 97.9%.

On to `C=CC(O)[C@@H](NS(=O)(=O)c1ccc(F)cc1)[C@@H](C)CC` (stereo partly drawn) [Example 133, 4-fluoro-N-{(1S)-2-hydroxy-1-[(1S)-1-methylpropyl]-3-butenyl}benzenesulfonamide], for which the “(%)APPI Toxicity” value in the data set on CHO-K1 cells (Conc 10 μg/ml) was 1 (1=non-toxic). In addition, the fold induction at 10 µg/mL in the data set with beta amyloid production (setting [2]) was found to be 1.79.

In the case of `CC[C@H](C)[C@H](NS(=O)(=O)c1ccc(Br)cc1)C(O)c1ccc(OC)cc1` (stereo partly drawn) [Example 158, 4-bromo-N-{(11 S,2S)-1-[hydroxy(4-methoxyphenyl)methyl]-2-methylbutyl}benzenesulfonamide], the “(%)APPI Toxicity” value with CHO-K1 cells (Conc 10 μg/ml) is on record as 1 (1=non-toxic). The “APPI Fold Increase” value in the data set with beta amyloid production (Conc 10 μg/ml, luciferase activity over diluent control) is on record as 2.28 fold. Also, in the data set on beta amyloid production (Conc 10 μg/ml), the “APPI % of Example #98” value was 101.49%.

On to `CC[C@@H](C)[C@@H](CO)NS(=O)(=O)c1ccc(Br)cc1` [Example 36, 4-bromo-N-[(1S,2R)-1-(hydroxymethyl)-2-methylbutyl]benzenesulfonamide], for which the “(%)APPI Toxicity” value with CHO-K1 cells (Conc 1 μg/ml), in the data set with CHO-K1 cells (Conc 3 μg/ml), in the data set with CHO-K1 cells (Conc 10 μg/ml) and with CHO-K1 cells (Conc 20 μg/ml) was 1 (1=non-toxic) in each case. The fold induction at 1 µg/mL in the data set on beta amyloid production (Conc 1 μg/ml, luciferase activity over diluent control, read-out: APPI Fold Increase) worked out at 1.6. For the same molecule, the fold induction at 3 µg/mL with beta amyloid production (setting [1]) stood at 2.05. For the same molecule, the fold induction at 10 µg/mL in the data set on beta amyloid production (setting [2]) is 3.33. Also, in the data set on beta amyloid production (setting [3]), the fold induction at 20 µg/mL was found to be 6.4.

As for `C=CCCC(O)[C@@H](NS(=O)(=O)c1ccc(F)cc1)[C@@H](C)CC` (stereo partly drawn) [Example 141, 4-fluoro-N-{(1S)-2-hydroxy-1-[(1S)-1-methylpropyl]-5-hexenyl}benzenesulfonamide], the “(%)APPI Toxicity” value in the data set on CHO-K1 cells (Conc 10 μg/ml) was 1 (1=non-toxic). Further, the fold induction at 10 µg/mL in the data set with beta amyloid production (setting [2]) was found to be 1.79.

As to `O=S(=O)(NC1(CO)CCCC1)c1ccc(Cl)cc1` [Example 103, 4-chloro-N-[1-(hydroxymethyl)cyclopentyl]benzenesulfonamide], in the data set on CHO-K1 cells (Conc 20 μg/ml), the “(%)APPI Toxicity” value was 1 (1=non-toxic). Moreover, the fold induction at 20 µg/mL with beta amyloid production (setting [3]) turned out to be 2.6.

In the case of `O=S(=O)(N[C@H](CO)C1CCCCC1)c1ccc(Br)cc1` [Example 16, 4-Bromo-N-[(1S)-1-cyclohexyl-2-hydroxyethyl]benzenesulfonamide], the “(%)APPI Toxicity” value in the data set with CHO-K1 cells (Conc 20 μg/ml) is 1 (1=non-toxic). For the same molecule, in the data set on beta amyloid production (setting [3]), the fold induction at 20 µg/mL is 2.7.
